Test results taken from patent publication US9770434B2, “Compositions for improved body composition” (Northern Innovations Holding Corp, priority 2014, dated 2017).
Entries after “also recorded” stand apart in the source; their conditions may differ.

Assays:
Format in all cases: in vivo, C57BL6/J male mice
[1] = Body weight of high fat diet mice during treatment; settings: HFD mice, ALA about 174 mg/kg daily, curcumin about 65 mg/kg daily; for body weight during the course of the experiment (FIG. 1): supplement in diet, recorded weekly
From the text: (§1) 5 week old C57BL6/J male mice were divided into 2 groups as follows: normal diet (ND) (10% kcal/fat) or high fat diet (HFD) (60% kcal/fat) each containing the same total calories. At 12 weeks of age, the HFD group was further divided into 4 groups as follows: HFD alone, HFD supplemented with alpha-lipoic acid (HFD+ALA), HFD supplemented with curcumin (HFD+CUR), or HFD supplemented with alpha-lipoic acid plus curcumin (HFD+ALA+CUR). Based on the average food intake, the daily dose for alpha-lipoic acid in the HFD+ALA group was about 174 mg/kg, the daily dose for curcumin in the HFD+CUR group was about 65 mg/kg, and the daily dose for each component in the HFD+ALA+CUR group was similar to that in the respective groups. Each of the 5 groups contained 8-10 mice. Body weight of the mice was recorded weekly and food intake was monitored every two days. After 10 weeks of treatment mice from each group were subjected to dual-energy X-ray absorptiometry (DEXA) scan; percent (%) body fat, fat mass, and lean mass were calculated.

[2] = DEXA scan of high fat diet mice (body fat %, fat mass, lean mass); settings: HFD mice; after 10 weeks of treatment
From the text: as §1

[3] = Food intake of high fat diet mice; settings: HFD mice; monitored every two days; compared to HFD mice
From the text: as §1

COc1cc(/C=C/C(=O)CC(=O)/C=C/c2ccc(O)c(OC)c2)ccc1O [curcumin]
body weight / weight gain after 11 weeks of treatment (FIG. 3) [1]: attenuated weight gain; also recorded: efficacy at attenuating weight gain | body weight during the course of the experiment (FIG. 1) [1]: weight gain less than the HFD mice | DEXA body fat % (FIG. 6) [2]: reduced the increased body fat % from a high fat diet | DEXA lean mass (FIG. 8) [2]: unaltered

O=C(O)CCCCC1CCSS1 (racemic) [alpha-lipoic acid, 6,8-dithio octanoic acid]
body weight / weight gain after 11 weeks of treatment (FIG. 3) [1]: attenuated weight gain; also recorded: efficacy at attenuating weight gain | body weight during the course of the experiment (FIG. 1) [1]: weight gain less than the HFD mice | food intake (grams) per day per gram body weight (FIG. 4) [3]: reduced food intake | food intake (kcals) per day per gram body weight (FIG. 5) [3]: reduced calorie intake | DEXA body fat % (FIG. 6) [2]: failed to reduce body fat % | DEXA fat mass (FIG. 7) [2]: attenuated increase in fat mass compared to the HFD group | DEXA lean mass (FIG. 8) [2]: significant attenuation in lean mass accrual
